Laboratory results as given in US20110144029A1, “Model Systems and Materials for the Study and Treatment of Neurodegenerative Diseases” (BOARD OF REGENTS, THE UNIVERSITY OF TEXAS SYSTEM, priority 2009, published 2011).
“Also recorded” adds a separate entry of the source. Where a SMILES comes first, the peptide text is derived from it. [ ]: non-standard residue; d: D form.

How the values were obtained:
[1] = system: cerebellar granule neurons; assay: Live/Dead (Red/Green) viability assay in cultured cerebellar granule neurons; type: cell-based, rat; details: 24 h peptide treatment, HK medium
Procedure: Neuronal cultures were switched to serum-free medium T-peptide, K-peptide, Core-peptide, V-peptide. VV-peptide, and T (L)-peptide. All peptides were used at 25 μM concentration. Phase contrast micrographs show appearance of the cultures after 24 h of peptide treatment. The Live/Dead viability assay was also performed. Nuclei of dead cells are stained red whereas cytoplasm of living cells are stained green. In the case of sick and dying cells, green staining is condensed;
(§1) Cerebellar granule neurons were switched to serum-free medium containing various concentrations of T-peptide, K-peptide, Core-peptide, V-peptide, VV-peptide, and T (L)-peptide. Cell viability was measured using two independent methods 24 h after peptide treatment and results are graphed. * indicates p<0.05 compared with control cells that were treated with HK: (4A) Results from Red/Green viability assay, (4B) Results from MTT assay;
Culturing and treatment of neurons: Cerebellar granule neurons were cultured from 7-8 day old rats as previously described. The neurons were plated in 24-well with poly-L-lysine coated glass coverslips at a density of ˜1 million cells/well in Basal Eagle's Medium with Earle's salts (BME) supplemented with 10% FCS, 25 mM KCl, 2 mM glutamine and […] gentamicin. To prevent mitosis of glial cells, cytosine arabinofuranoside ([…]) was added to culture 16-20 hrs after plating. Neuronal cultures were treated with peptides 6-7 days after plating. For treatment, the cultures were switched to serum-free medium containing 25 mM KCl (referred to as high potassium or HK medium). Although serum is required for proper maturation, after 5 days in culture, the neurons survive normally in the absence of serum provided depolarizing levels of KCl is added.
Cell viability quantification: Cell viability was quantified using the Live/Dead assays with a commercially available kit (Invitrogen). This is a two-color fluorescence assay utilizing two cell-permeable compounds, calcein acetoxymethyl (calcein AM) and ethidium homodimer-1 (EthD-1). Live cells have intracellular esterases that convert non-fluorescent calcein AM to the intensely green fluorescent calcein, which is retained within the cytoplasm of cells. Because dead cells have damaged membranes, EthD-1 enters and is fluorescent when bound to nucleic acids. EthD-1 stains the nuclei of damaged or dead cells. As recommended by the manufacturer, cells plated in wells with cover-slips were incubated in Live/Dead reagent (1 uM calcein AM and 4 uM EthD-1) for 30 min, and then mounted on slides. Cell viability was also analyzed using the MTT [3-(4,5-Dimethylthiazol-2-yl)-2,5-diphenyltetrazolium bromide] assay based on the evaluation of mitochondrial function. MTT assays were performed as previously described. Briefly, MTT (5 mg/ml in culture medium) was added to the culture medium and the cells incubated at 37° C. for 1 h. The assay was stopped by adding lysis buffer [20% sodium dodecyl sulfate (SDS) in 50% N,N-dimethylformamide, pH 4.7]. Absorbance was measured spectrophotometrically at 570 nm after an overnight incubation at room temperature.

[2] = system: cerebellar granule neurons; assay: MTT assay in cerebellar granule neurons; type: cell-based, rat; details: 24 h peptide treatment
Procedure: as §1
Culturing and treatment of neurons: Cerebellar granule neurons were cultured from 7-8 day old rats as previously described. The neurons were plated in 24-well with poly-L-lysine coated glass coverslips at a density of ˜1 million cells/well in Basal Eagle's Medium with Earle's salts (BME) supplemented with 10% FCS, 25 mM KCl, 2 mM glutamine and […] gentamicin. […]
Cell viability quantification: Cell viability was quantified using the Live/Dead assays with a commercially available kit (Invitrogen). This is a two-color fluorescence assay utilizing two cell-permeable compounds, calcein acetoxymethyl (calcein AM) and ethidium homodimer-1 (EthD-1). […] Cell viability was also analyzed using the MTT [3-(4,5-Dimethylthiazol-2-yl)-2,5-diphenyltetrazolium bromide] assay based on the evaluation of mitochondrial function. […] Absorbance was measured spectrophotometrically at 570 nm after an overnight incubation at room temperature.

[3] = Polymerization kinetics by Thioflavin S (ThS) fluorescence in the presence of heparin; type: physicochemical; details: for A (first phase / growth curve): ST-peptide according to Eqn. [2]
Procedure: Aggregation kinetics of T-peptide (filled triangles), V-peptide (filled diamonds), F-peptide (X), Core peptide (open triangles), VV-peptide (open diamonds) and K-peptide (filled circles). […] Solid lines represent fitted values;
Kinetic analysis: Polymerization kinetics were measured by monitoring the increase in Thioflavin S (ThS) fluorescence at 490 nm (440 nm excitation). Slit widths were 15 and 20 nm respectively for excitation and emission. All measurements were carried out at 21° C. with a Perkin Elmer LS50B spectrofluorimeter using a 75 μL quartz cell. Data points were collected at 6 s intervals over the course of the experiment (60 min). In order to initiate polymerization a freshly filtered stock solution was diluted to 10 μM in 200 μL of Buffer A containing 33 μM heparin (Sigma-Aldrich; 3,000 MW) and 100 μM Thioflavin S (ThS). Kinetics data, corrected for the blank, were fit using a non-linear least squares algorithm to a Gompertz-like growth curve {{260 Necula, M. 2004}} (Eqn.)
where y is defined as the fluorescence signal at time t, ti corresponds to the inflection point of the curve, or the time of maximum growth rate, A is the maximum fluorescence observed for a given sample, and b=1/k, where k is the rate constant of aggregation, in units of s^−1. Lag-times were calculated as ti−b. The pre-growth curve exponential, e^(−k′t) was inserted to take into account the slow decrease in fluorescent intensity resulting from ThS bleaching, quenching and gravitational precipitation of the amyloid-ThS complex. Standard errors in fitted parameters were estimated assuming a 10% error in the sum of the squares.

[4] = previously shown [19, 20]; cited from earlier work
[5] = Transmission electron microscopy (TEM) of peptide aggregates; type: physicochemical; details: 100 μM peptide in Buffer A, uranyl acetate stain
Procedure: All peptides were prepared at 100 μM in Buffer A and stained with uranyl acetate;
Transmission Electron Microscopy (TEM): Filtered stock peptide solutions were diluted to 100 μM in 5 mM MOPS containing 0.1% NaN3, 0.15 M NaCl, pH 7.2 (Buffer A) and were incubated at room temperature overnight. Samples were loaded onto carbon-coated Formvar copper grids (200 mesh) and stained with 2% wt/wt uranyl acetate. A JEOL 1200 EX scope interfaced to a digital camera was used to visualize samples.

culture = assay: Neurotoxicity of non-tau related aggregating peptides in culture; type: cell-based; details: FIG. 13
From the text: FIG. 13 is an image of the non-tau related aggregating peptides are not neurotoxic.

CC(=O)N[C@@H](CCCNC(=N)N)C(=O)N[C@@H](CCCNC(=N)N)C(=O)N[C@@H](CCCNC(=N)N)C(=O)N[C@@H](CCCNC(=N)N)C(=O)N[C@@H](CCCNC(=N)N)C(=O)N[C@@H](CCCNC(=N)N)C(=O)N[C@@H](CCCNC(=N)N)C(=O)N[C@@H](CCCNC(=N)N)C(=O)N[C@@H](CCCNC(=N)N)C(N)=O [Ac—R9—NH2, reference compound]
neurotoxicity / effect on neuronal survival [1]: no effect on neuronal survival

CC[C@@H](C)[C@@H](NC(=O)[C@@H](CCC(N)=O)NC(=O)[C@H](NC(C)=O)C(C)C)C(=O)N[C@@H](C(=O)N[C@H](Cc1ccc(O)cc1)C(=O)N[C@H](CCCCN)C(N)=O)C(C)C [Core-peptide, Ac-vqivyk-NH2] (Ac-[dV][dQ][dI][dV][dY][dK]-NH2)
neurotoxicity / effect on neuronal survival [1]: not toxic
MTT assay result (mitochondrial function, words) [2]: mitochondrial dysfunction

CC[C@@H](C)[C@@H](NC(=O)[C@@H](CCC(N)=O)NC(=O)[C@H](NC(C)=O)C(C)C)C(=O)N[C@@H](C(=O)N[C@H](CCCCN)C(=O)N[C@H](CCCCN)C(=O)N[C@@H](CCCNC(=N)N)C(=O)N[C@@H](CCCNC(=N)N)C(=O)N[C@@H](CCCNC(=N)N)C(=O)N[C@@H](CCCNC(=N)N)C(=O)N[C@@H](CCCNC(=N)N)C(=O)N[C@@H](CCCNC(=N)N)C(=O)N[C@@H](CCCNC(=N)N)C(=O)N[C@@H](CCCNC(=N)N)C(=O)N[C@@H](CCCNC(=N)N)C(N)=O)C(C)C [K-peptide, Ac-vqivkk-R9—NH2]
neurotoxicity / effect on neuronal survival [1]: neither K-peptide nor VV-peptide reduced neuronal survival

CC(=O)N[C@@H](C(=O)N[C@H](CCC(N)=O)C(=O)N[C@@H](C(=O)N[C@@H](C(=O)N[C@H](Cc1ccc(O)cc1)C(=O)N[C@H](CCCCN)C(=O)N[C@@H](CCCNC(=N)N)C(=O)N[C@@H](CCCNC(=N)N)C(=O)N[C@@H](CCCNC(=N)N)C(=O)N[C@@H](CCCNC(=N)N)C(=O)N[C@@H](CCCNC(=N)N)C(=O)N[C@@H](CCCNC(=N)N)C(=O)N[C@@H](CCCNC(=N)N)C(=O)N[C@@H](CCCNC(=N)N)C(=O)N[C@@H](CCCNC(=N)N)C(N)=O)C(C)C)C(C)C)C(C)C [V-peptide, Ac-vqvvyk-R9—NH2]
neurotoxicity / effect on neuronal survival [1]: moderate level of cell death

CC(=O)N[C@@H](C(=O)N[C@H](CCC(N)=O)C(=O)N[C@@H](C(=O)N[C@@H](C(=O)N[C@@H](C(=O)N[C@H](CCCCN)C(=O)N[C@@H](CCCNC(=N)N)C(=O)N[C@@H](CCCNC(=N)N)C(=O)N[C@@H](CCCNC(=N)N)C(=O)N[C@@H](CCCNC(=N)N)C(=O)N[C@@H](CCCNC(=N)N)C(=O)N[C@@H](CCCNC(=N)N)C(=O)N[C@@H](CCCNC(=N)N)C(=O)N[C@@H](CCCNC(=N)N)C(=O)N[C@@H](CCCNC(=N)N)C(N)=O)C(C)C)C(C)C)C(C)C)C(C)C [VV-peptide, Ac-vqvvvkR9—NH2]
neurotoxicity / effect on neuronal survival [1]: neither K-peptide nor VV-peptide reduced neuronal survival

Ac-VQIVFK-R9—NH2 (Ac-VQIVFKRRRRRRRRR-NH2) [F-peptide]
A (maximum fluorescence, fitted kinetic parameter) ([3]; 10 μM peptide, 33 μM heparin, 100 μM ThS, Buffer A pH 7.2, 21° C., NA = no aggregation observed by ThS fluorescence, ±10% error): 5.5
self-aggregation in vitro ([3]; ThS fluorescence, heparin, 10 μM concentration): aggregate in a fashion similar to the Core peptide; also recorded: capable of self-aggregation in vitro
neurotoxicity / effect on neuronal survival [1]: induces toxicity

Ac-^306VQIVYK^311-NH2 [AcPHF6]
critical concentration above which peptide polymerizes into amyloid fibrils [4]: about 2 μM

SQIVYA-R9 (SQIVYARRRRRRRRR) [SQ-peptide, de novo non-tau aggregating peptide]
A (first phase / growth curve) ([3]; ThS fluorescence): 8.8
morphology of aggregates [5]: irregular non-uniform filaments similar to V-peptide
neurotoxicity in culture (culture): neither of these two peptides displayed neurotoxicity

STVIIE-R9 (STVIIERRRRRRRRR) [ST-peptide, non-tau aggregating peptide previously described by Pastor et al, reference compound]
lag time ([3]; ThS fluorescence): ~3000 s
A (first phase / growth curve) ([3]; ThS fluorescence): 4.9
A′ (second period of more rapid aggregation) ([3]; according to Eqn. [2]): 6.3
diameter of fibrils / filaments / amyloid bodies / fibers ([5]; overnight): 10-40 nm
morphology of aggregates [5]: amyloid sheets which appear to roll into irregular fibers
neurotoxicity in culture (culture): neither of these two peptides displayed neurotoxicity
